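These data come from cells grown in 96-well plates and exposed to compound for 48 hours at five concentrations. Abbreviation: GI50, concentration required for 50% inhibition of growth.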 Calls of active or inactive are those of the source. No stated cut-off is given here; in the data, active = GI50 up to about 1.1 µM and inactive = higher.
What was measured:
Experiment in all cases: NCI tumour cell line growth inhibition, 48 h
A498 = tested on: A498
BT-549 = tested on: BT-549
CAKI-1 = tested on: CAKI-1
DU-145 = tested on: DU-145
HOP-92 = tested on: HOP-92
HT-29 = tested on: HT-29
Hs-578T = tested on: Hs-578T
MCF7 = tested on: MCF7
MDA-MB-435 = tested on: MDA-MB-435
OVCAR-4 = tested on: OVCAR-4
OVCAR-5 = tested on: OVCAR-5
SF-268 = tested on: SF-268
SK-MEL-5 = tested on: SK-MEL-5
SNB-75 = tested on: SNB-75
UO-31 = tested on: UO-31
MDA-MB-231 = tested on: MDA-MB-231
NCI-H226 = tested on: NCI-H226
T47D = tested on: T47D
LOX IMVI = tested on: LOX IMVI

Measured: GI50

O=C1CN(c2ccccc2)C(=O)CN1NCNN1CC(=O)N(c2ccccc2)CC1=O
inactive: A498 > 100 µM | BT-549 > 100 µM | CAKI-1 > 100 µM | DU-145 > 100 µM | HOP-92 > 100 µM | HT-29 > 100 µM | Hs-578T > 100 µM | MCF7 > 100 µM | MDA-MB-435 > 100 µM | OVCAR-4 > 100 µM | OVCAR-5 > 100 µM | SF-268 > 100 µM | SK-MEL-5 > 100 µM | SNB-75 > 100 µM | UO-31 > 100 µM

CCN(CC)CCOc1ccccc1/C=C/c1noc2ccccc12
inactive: A498 17.2 µM | BT-549 16.3 µM | CAKI-1 12.8 µM | DU-145 15.7 µM | HT-29 2.27 µM | Hs-578T 15.7 µM | MCF7 14.2 µM | MDA-MB-231 11.4 µM | NCI-H226 16.3 µM | OVCAR-4 24.5 µM | OVCAR-5 12.5 µM | SF-268 17.2 µM | SK-MEL-5 3.79 µM | SNB-75 10.4 µM | T47D 12.6 µM | UO-31 6.11 µM

C[N+](C)(C)c1ncnc2c1ncn2C1CCCO1 (centres undefined)
inactive: A498 > 100 µM | BT-549 > 100 µM | DU-145 > 100 µM | HOP-92 > 100 µM | HT-29 > 100 µM | Hs-578T > 100 µM | MCF7 > 100 µM | MDA-MB-435 > 100 µM | NCI-H226 > 100 µM | OVCAR-4 > 100 µM | OVCAR-5 > 100 µM | SF-268 > 100 µM | SK-MEL-5 > 100 µM | SNB-75 84.9 µM | T47D > 100 µM | UO-31 > 100 µM

COc1cc(C2S/C(=C/c3ccccc3)C(=O)N2c2cccc(Cl)c2)cc(OC)c1OC (centres undefined)
inactive: A498 69.7 µM | BT-549 28.6 µM | CAKI-1 30.8 µM | DU-145 23.1 µM | HOP-92 96.4 µM | HT-29 44.9 µM | Hs-578T 86.7 µM | LOX IMVI 21.1 µM | MCF7 34 µM | MDA-MB-231 > 100 µM | MDA-MB-435 22.2 µM | NCI-H226 93.5 µM | OVCAR-4 29.8 µM | OVCAR-5 > 100 µM | SF-268 77.1 µM | SK-MEL-5 35.7 µM | UO-31 23.7 µM

COc1nc2c(c(=O)[nH]1)N=C(c1ccc([N+](=O)[O-])cc1)CC(c1ccccc1)N2 (centres undefined)
inactive: A498 > 100 µM | BT-549 > 100 µM | CAKI-1 > 100 µM | DU-145 > 100 µM | HOP-92 84.3 µM | HT-29 > 100 µM | LOX IMVI 38.4 µM | MCF7 57.7 µM | MDA-MB-231 > 100 µM | MDA-MB-435 > 100 µM | NCI-H226 > 100 µM | OVCAR-4 62.8 µM | OVCAR-5 > 100 µM | SK-MEL-5 49.7 µM | SNB-75 32.8 µM | UO-31 62.4 µM

COC(=O)C1=C(CCCCO[Si](C)(C)C(C)(C)C)NC(=O)N2[C@@H](CCOCc3ccccc3)CC[C@H]12
inactive: A498 53 µM | BT-549 20.5 µM | CAKI-1 16.8 µM | DU-145 12.8 µM | HOP-92 15.5 µM | HT-29 12.3 µM | MCF7 27 µM | MDA-MB-231 18.2 µM | MDA-MB-435 24 µM | OVCAR-4 27.5 µM | OVCAR-5 33.1 µM | SF-268 25.8 µM | SK-MEL-5 10.3 µM | SNB-75 25.2 µM | T47D 15.8 µM | UO-31 19.5 µM

CC(=O)C(C(=O)c1ccc(C)cc1)[C@H]1OC(C)(C)O[C@H]1[C@H]1COC(C)(C)O1 (some centres undefined)
inactive: A498 7.55 µM | BT-549 6.3 µM | CAKI-1 5.38 µM | HOP-92 7.98 µM | HT-29 2.2 µM | Hs-578T 3.08 µM | LOX IMVI 2.06 µM | MCF7 1.97 µM | MDA-MB-231 5.82 µM | MDA-MB-435 2.24 µM | NCI-H226 14.5 µM | OVCAR-4 2.53 µM | OVCAR-5 8.39 µM | SF-268 2.81 µM | SK-MEL-5 5.08 µM | SNB-75 3.78 µM | T47D 6.53 µM | UO-31 6.98 µM

Cc1nc(N)sc1/N=N/c1ccccc1Br
inactive: A498 14.2 µM | BT-549 24.7 µM | CAKI-1 43.5 µM | DU-145 34.7 µM | HOP-92 18 µM | HT-29 35.9 µM | LOX IMVI > 48.9 µM | MCF7 35.4 µM | MDA-MB-231 37.3 µM | MDA-MB-435 24.3 µM | NCI-H226 39.7 µM | OVCAR-4 > 35.3 µM | OVCAR-5 41.6 µM | SF-268 17.2 µM | SK-MEL-5 31.3 µM | SNB-75 10.3 µM | T47D 15.8 µM | UO-31 31 µM

Cc1ncc([N+](=O)[O-])n1CCNC(=O)Cn1c([N+](=O)[O-])cnc1C
inactive: A498 > 100 µM | BT-549 > 100 µM | CAKI-1 > 100 µM | DU-145 92.5 µM | HT-29 > 100 µM | Hs-578T > 100 µM | MCF7 > 100 µM | MDA-MB-231 > 100 µM | MDA-MB-435 > 100 µM | NCI-H226 > 100 µM | OVCAR-5 > 100 µM | SF-268 > 100 µM | SK-MEL-5 > 100 µM | SNB-75 76.2 µM | T47D > 100 µM | UO-31 > 100 µM

Cc1c(-c2ccccc2)nn2cc(-c3ccccc3)nnc12
inactive: A498 56.6 µM | BT-549 25.2 µM | CAKI-1 45.7 µM | DU-145 30.4 µM | HOP-92 15.5 µM | HT-29 24.2 µM | Hs-578T 25.2 µM | LOX IMVI 19 µM | MDA-MB-231 18.3 µM | MDA-MB-435 29.5 µM | NCI-H226 21.2 µM | OVCAR-4 44.5 µM | OVCAR-5 30.7 µM | SF-268 28.6 µM | SK-MEL-5 16.3 µM | SNB-75 20.7 µM | T47D 61.2 µM | UO-31 29.1 µM

O=C1c2ccccc2CC12CCC1(CC2)OCCO1
inactive: BT-549 > 100 µM | CAKI-1 > 100 µM | DU-145 > 100 µM | HT-29 > 100 µM | Hs-578T > 100 µM | LOX IMVI > 100 µM | MCF7 > 100 µM | MDA-MB-231 > 100 µM | NCI-H226 > 100 µM | OVCAR-4 > 100 µM | OVCAR-5 > 100 µM | SF-268 > 100 µM | SK-MEL-5 > 10 µM | SNB-75 > 100 µM | T47D > 100 µM | UO-31 > 100 µM

O=C(OCCN1CCCCC1)C(c1ccccc1)C1(O)CCSCC1 (centres undefined)
inactive: A498 > 100 µM | CAKI-1 > 100 µM | DU-145 > 100 µM | HOP-92 > 100 µM | HT-29 > 100 µM | Hs-578T > 100 µM | LOX IMVI > 100 µM | MCF7 > 100 µM | MDA-MB-231 > 100 µM | MDA-MB-435 > 100 µM | NCI-H226 > 100 µM | OVCAR-4 > 100 µM | OVCAR-5 > 100 µM | SF-268 > 100 µM | SK-MEL-5 > 100 µM | SNB-75 83.4 µM | T47D > 100 µM | UO-31 > 100 µM

NC(Cc1ccccc1)C(=O)NC(Cc1ccccc1)NC(=O)C(Cc1c[nH]c2ccccc12)C(=O)O (centres undefined)
inactive: A498 > 100 µM | CAKI-1 > 100 µM | DU-145 > 100 µM | HOP-92 34.8 µM | HT-29 > 100 µM | Hs-578T 37.7 µM | LOX IMVI > 100 µM | MCF7 > 100 µM | MDA-MB-231 > 100 µM | MDA-MB-435 > 100 µM | NCI-H226 > 100 µM | OVCAR-4 > 100 µM | OVCAR-5 > 100 µM | SF-268 > 100 µM | SK-MEL-5 12 µM | SNB-75 > 100 µM | T47D > 100 µM | UO-31 51.9 µM

Cc1ccc(S(=NS(=O)(=O)c2ccc(C)cc2)c2ccc(C)cc2)cc1
inactive: BT-549 > 100 µM | DU-145 > 100 µM | HOP-92 > 100 µM | HT-29 > 100 µM | MCF7 68.2 µM | MDA-MB-435 60.3 µM | NCI-H226 > 100 µM | OVCAR-5 > 100 µM | SF-268 76.2 µM | T47D 56 µM | UO-31 63.7 µM

COC(=O)[C@]1(c2cc3ccccc3[nH]2)CC2CNC1C1OC(C)(C)OC21 (some centres undefined)
inactive: BT-549 > 100 µM | CAKI-1 > 100 µM | DU-145 > 100 µM | HOP-92 > 100 µM | HT-29 > 100 µM | LOX IMVI > 100 µM | MCF7 > 100 µM | MDA-MB-231 64.7 µM | MDA-MB-435 84.5 µM | NCI-H226 > 100 µM | OVCAR-4 > 100 µM | OVCAR-5 > 100 µM | SF-268 > 100 µM | SK-MEL-5 > 100 µM | SNB-75 > 100 µM | T47D 52.4 µM | UO-31 > 100 µM

CCc1c2c([nH]c(=S)c1C#N)CCC2
inactive: A498 > 100 µM | BT-549 > 100 µM | CAKI-1 > 100 µM | DU-145 > 100 µM | HOP-92 2.35 µM | HT-29 > 100 µM | Hs-578T > 100 µM | LOX IMVI > 100 µM | MCF7 > 100 µM | MDA-MB-231 > 100 µM | MDA-MB-435 > 100 µM | NCI-H226 > 100 µM | OVCAR-4 > 100 µM | OVCAR-5 > 100 µM | SF-268 > 100 µM | SK-MEL-5 > 100 µM | SNB-75 > 100 µM | UO-31 > 100 µM

— ChEMBL document CHEMBL1201862, “PubChem BioAssay data set” (2004)
